We go through eight compounds from US8053581B2, “Trisubstituted thiazole compounds, preparations methods, pharmaceutical compositions and medicals uses thereof” (Institute of Pharmacology and Toxicology Academy of …, priority 2006, dated 2011).

The structures appear in SMILES notation.

The target in data set [1] is T1, PLTP (Homo sapiens, UniProt P55058).
T1 construct: from tissue
As to the kind of experiment: Determination of PLTP inhibition activity (radiolabelled phospholipid liposome to HDL transfer with plasma). The class given is biochemical. The note with it: for inhibition at 150 µM: Concentration of compounds 150 μM; for inhibition at 150 µM / inhibition at 250 µM: read-out: PLTP inhibition activity Inhibition rate(%); for inhibition at 250 µM: Concentration of compounds 250 μM. The protocol: 30 μl (about 1000 cpm/μl) phospholipids liposome, 30 μl HDL ([…]), 337 μl TSE and 3 μl plasma were mixed, incubated in 37° C. water-bath for 1 hour, and then added 300 μl of a settling solution (50 ml solution preparation: 5.36 ml 5N NaCl, 9.075 ml 2M MnCl2 and 46 mg liver phospholipid were mixed, added water to 50 ml), the solution was stood at room temperature for 10 minutes, rotated at high speed for 10 minutes (to remove phospholipids liposome), 500 μl of the supernatant was sampled and counted. PLTP activity (cpm/h/3 μl)=sample cpm-background cpm.

Data set [2] addresses T2, CETP (Homo sapiens, UniProt P11597).
T2 sequence (P11597 18-493): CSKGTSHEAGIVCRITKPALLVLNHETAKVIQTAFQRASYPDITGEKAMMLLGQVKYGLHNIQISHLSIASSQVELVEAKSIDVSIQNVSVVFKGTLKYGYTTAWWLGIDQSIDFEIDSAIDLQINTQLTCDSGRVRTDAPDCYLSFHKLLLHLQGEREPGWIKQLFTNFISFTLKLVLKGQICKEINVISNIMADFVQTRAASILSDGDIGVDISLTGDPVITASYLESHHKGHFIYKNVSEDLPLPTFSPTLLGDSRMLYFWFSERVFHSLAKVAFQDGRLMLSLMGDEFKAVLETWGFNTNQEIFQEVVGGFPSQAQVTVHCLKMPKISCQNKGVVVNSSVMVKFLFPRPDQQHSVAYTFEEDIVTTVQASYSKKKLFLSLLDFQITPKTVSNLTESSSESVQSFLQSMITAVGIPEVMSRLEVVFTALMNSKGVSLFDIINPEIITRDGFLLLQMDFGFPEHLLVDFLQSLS
As to the kind of experiment: Determination of CETP inhibition activity (fluorescent donor/acceptor transfer). The class given is biochemical. The note with it: Concentration of compounds 500 μM; read-out: CETP inhibition activity Inhibition rate(%). The protocol:
A mixture containing 3 μl of a donor, 9 μl of an acceptor (250 μg protein), 3 μl of CETP solution and 85 μl of an analytic buffer, 10 mM Tris, 0.15 M NaCl and 2 mM EDTA, pH 7.4 was incubated at 37° C. for 0.5 hours, the fluorescence intensity was determined on Victor 3 double illuminometer/fluorescence counter (Perkin Elmer) carrying […] light wave length.

In data set [3] the target is T1, PLTP. Conditions: reported in WO 2002068450; read-out: Ki value to inhibit PLTP; cited from earlier work.
Data set [4] addresses T2, CETP. Conditions: reported in WO 2002068450; read-out: Ki value to inhibit CETP; cited from earlier work.

T1 sequence (P55058 18-493, species assumed): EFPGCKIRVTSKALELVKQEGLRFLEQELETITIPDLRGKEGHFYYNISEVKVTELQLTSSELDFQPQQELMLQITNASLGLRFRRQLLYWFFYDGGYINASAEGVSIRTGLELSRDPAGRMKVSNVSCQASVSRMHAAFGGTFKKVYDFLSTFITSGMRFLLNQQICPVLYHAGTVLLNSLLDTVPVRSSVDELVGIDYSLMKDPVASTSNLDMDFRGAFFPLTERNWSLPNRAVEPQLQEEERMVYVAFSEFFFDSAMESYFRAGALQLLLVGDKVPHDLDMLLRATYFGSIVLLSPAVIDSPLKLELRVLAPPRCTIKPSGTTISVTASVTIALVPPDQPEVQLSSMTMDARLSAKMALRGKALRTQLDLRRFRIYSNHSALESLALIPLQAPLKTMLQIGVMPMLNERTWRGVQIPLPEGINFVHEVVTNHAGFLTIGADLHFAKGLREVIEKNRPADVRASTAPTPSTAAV

On to `O=C(Nc1nc(-c2ccc(O)cc2)c(Cc2ccccc2)s1)c1cc(O)c(O)c(O)c1` [Example 41, N-[5-benzyl-4-(4-hydroxy-phenyl)-thiazol-2-yl]-3,4,5-trihydroxy-benzamide], for which the melting point (in general, the temperature, or range, at which the solid turns liquid) lay in the range of 245 to 246 °C. Further, on PLTP [1], the 50% inhibitory concentration (IC50) (usually the concentration needed to halve the response being measured) was 15 µM and the inhibition (commonly the percentage by which the read-out fell short of the control) at 150 µM came to 89.4%. Besides, at CETP [2], the inhibition at 500 µM is 44.1%.
Compound `O=C(Nc1nc(-c2ccc(O)cc2)c(Cc2ccc([N+](=O)[O-])cc2)s1)c1ccc(O)c(O)c1` [Example 34, 3,4-dihydroxy-N-[4-(4-hydroxy-phenyl)-5-(4-nitro-benzyl)-thiazol-2-yl]-benzamide] registered a melting point of 195 to 196 °C. Further, at PLTP [1], the IC50 worked out at 100 µM and the inhibition at 250 µM amounted to 67.6%. For the same compound, the inhibition at 500 µM on CETP [2] was found to be 30.4%.
Taken in the same sequence, the figures for `CCCCc1sc(NC(=O)c2cc(O)c(O)c(O)c2)nc1-c1ccc(O)cc1` [Example 66, N-[5-n-butyl-4-(4-hydroxy-phenyl)-thiazol-2-yl]-3,4,5-trihydroxy-benzamide] were 119 to 120 °C, 75 µM, 100% and 27.3%.
For `O=C(Nc1nc(-c2ccc(F)cc2)c(Cc2ccc([N+](=O)[O-])cc2)s1)c1ccc(O)c(O)c1` [Example 31, N-[4-(4-fluoro-phenyl)-5-(4-nitro-benzyl)-thiazol-2-yl]-3,4-dihydroxy-benzamide], in that order: 276 to 278 °C, 75 µM, 100% and 0%.
Regarding `O=C(Nc1nc(-c2ccc(O)cc2)c(CC2CCCCC2)s1)c1ccc(O)c(O)c1` [Example 49, N-[5-cyclohexylmethyl-4-(4-hydroxy-phenyl)-thiazol-2-yl]-3,4-dihydroxy-benzamide], the melting point is 133 to 134 °C. At PLTP [1], the IC50 is 35 µM and the inhibition at 150 µM amounted to 81.6%. Moreover, the inhibition at 500 µM on CETP [2] was 6%.
The compound `O=C(Nc1nc(-c2ccc(O)cc2)c(Cc2ccc(F)cc2)s1)c1ccc(O)c(O)c1` [Example 33, N-[5-(4-fluoro-benzyl)-4-(4-hydroxy-phenyl)-thiazol-2-yl]-3,4-dihydroxy-benzamide] showed a melting point of 154 to 155 °C. On PLTP [1], the IC50 is 100 µM and the inhibition at 250 µM came out at 73.2%. Also, the inhibition at 500 µM at CETP [2] came to 9.2%.
As to `CCCCc1sc(N)nc1-c1ccc(OC)cc1` [Example 62, 4-(4-methoxy-phenyl)-5-n-butyl-thiazol-2-ylamine], the melting point was 118 to 119 °C. For the same compound, the inhibition at 250 µM at PLTP [1] is 15.3%. The inhibition at 500 µM on CETP [2] was found to be 65.4%.
For the compound `CC(C)(C)C(=O)Nc1ccccc1SSc1ccccc1NC(=O)C(C)(C)C` [N-{2-[2-(2,2-dimethyl-propanamido)-phenyldithio]-phenyl}-2,2-dimethyl-propanamide], the Ki (as a rule, a dissociation constant, usually derived from enzyme kinetics or from competition with a known ligand) is 15 µM at PLTP [3] and 13 µM at CETP [4].
